Assay results taken from patent US20060069132A1, “Azolecarboxamide herbicides” (priority 2004, published 2006).
Where two headings read alike, the source gives them in different places.

Tests used:
barnyardgrass [1] = assay: Test C flooded paddy test; type: in vivo, Echinochloa crus-galli
Outline: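 Scoring by eye, 12–14 days post-treatment, greenhouse-held plants vs. controls; 0 no effect, 100 complete control. Sprayed at 1–4 leaves (2–18 cm); paddy barnyardgrass at 2 leaves, flooded.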

giant foxtail = assay: Test A pre-/postemergence herbicide test; type: in vivo, Setaria faberi; conditions: for pest or weed control at 500 g/ha / pest or weed control at 2000 g/ha: Setaria faberi, 240 h
Outline: (§1)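 Seeds sown in sandy loam received a preemergence directed soil spray of compound in non-phytotoxic solvent with surfactant; postemergence plants (2–10 cm, one- to two-leaf stage) were sprayed to runoff at the same time. After ~10 days in greenhouse, injury was rated visually versus untreated controls (0 = no effect, 100 = complete control).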

barnyardgrass [2] = assay: Test A pre-/postemergence herbicide test; type: in vivo, Echinochloa crus-galli; conditions: for pest or weed control at 500 g/ha / pest or weed control at 2000 g/ha: Echinochloa crus-galli, 240 h
Outline: as §1

redroot pigweed = assay: Test A pre-/postemergence herbicide test; type: in vivo, Amaranthus retroflexus; conditions: for pest or weed control at 500 g/ha / pest or weed control at 2000 g/ha: Amaranthus retroflexus, 240 h
Outline: as §1

ducksalad = assay: Test C flooded paddy test; type: in vivo, Heteranthera limosa
velvetleaf = assay: Test A pre-/postemergence herbicide test; type: in vivo, Abutilon theophrasti
Outline: as §1

[3] = 62 g ai/ha, scale 0 to 100 (0 no effect, 100 complete control)
[4] = 125 g ai/ha, scale of 0 to 100, 0 is no effect, 100 is complete control
[5] = 250 g ai/ha, scale of 0 to 100, 0 is no effect, 100 is complete control
[6] = 500 g ai/ha, visual rating after 12 to 14 days, scale 0 to 100 (0 no effect, 100 complete control)
[7] = Postemergence, 500 g ai/ha, 0 to 100 scale, 0 no effect, 100 complete control
[8] = Postemergence, 2000 g ai/ha, 0 to 100 scale, 0 no effect, 100 complete control
[9] = Preemergence, 500 g ai/ha, visual rating, 0 to 100 scale (0 no effect, 100 complete control)
[10] = Preemergence, 2000 g ai/ha, 0 to 100 scale, 0 no effect, 100 complete control

Work on `CCn1nc(C(C)(C)C)cc1C(=O)Nc1cccc(C(=O)NCC(F)(F)F)c1` [Compound 43, 3-(1,1-dimethylethyl)-1-ethyl-N-[3-[[(2,2,2-trifluoroethyl)amino]carbonyl]-phenyl]-1H-pyrazole-5-carboxamide] yielded a pest or weed control at 62 g/ha (barnyardgrass [1]; Echinochloa crus-galli, 62 g ai/ha, scale 0 to 100 (0 no effect, 100 complete control), read-out: Barnyardgrass plant response rating) of 0%, a pest or weed control at 125 g/ha (barnyardgrass [1]; Echinochloa crus-galli, 125 g ai/ha, scale of 0 to 100, 0 is no effect, 100 is complete control, read-out: Barnyardgrass plant response rating) of 0% and a pest or weed control at 250 g/ha (barnyardgrass [1]; Echinochloa crus-galli, 250 g ai/ha, visual rating after 12 to 14 days, scale 0 to 100 (0 no effect, 100 complete control), read-out: Plant response rating, Barnyardgrass) of 40%. For the same molecule, the pest or weed control at 500 g/ha (barnyardgrass [1]; Echinochloa crus-galli, 500 g ai/ha, visual rating after 12 to 14 days, scale 0 to 100 (0 no effect, 100 complete control), read-out: Plant response rating, Barnyardgrass) was 50%, the pest or weed control at 500 g/ha (giant foxtail; post-emergence, Postemergence, 500 g ai/ha, 0 to 100 scale, 0 no effect, 100 complete control, read-out: Plant response rating, Foxtail, Giant) was 70% and the pest or weed control at 2000 g/ha (giant foxtail; post-emergence, Postemergence, 2000 g ai/ha, 0 to 100 scale, 0 no effect, 100 complete control, read-out: Plant response rating, Foxtail, Giant) was 70%. It also gave a pest or weed control at 500 g/ha (giant foxtail; pre-emergence, Preemergence, 500 g ai/ha, visual rating, 0 to 100 scale (0 no effect, 100 complete control), read-out: Foxtail, Giant plant response rating) of 55%, a pest or weed control at 2000 g/ha (giant foxtail; pre-emergence, Preemergence, 2000 g ai/ha, 0 to 100 scale, 0 no effect, 100 complete control, read-out: Foxtail, Giant plant response rating) of 100% and a pest or weed control at 500 g/ha (barnyardgrass [2]; post-emergence, Postemergence, 500 g ai/ha, 0 to 100 scale, 0 no effect, 100 complete control, read-out: Plant response rating, Barnyardgrass) of 90%. The pest or weed control at 2000 g/ha (barnyardgrass [2]; post-emergence, Postemergence, 2000 g ai/ha, 0 to 100 scale, 0 no effect, 100 complete control, read-out: Plant response rating, Barnyardgrass) was 100%, the pest or weed control at 500 g/ha (barnyardgrass [2]; pre-emergence, Preemergence, 500 g ai/ha, visual rating, 0 to 100 scale (0 no effect, 100 complete control), read-out: Barnyardgrass plant response rating) was 60% and the pest or weed control at 2000 g/ha (barnyardgrass [2]; pre-emergence, Preemergence, 2000 g ai/ha, 0 to 100 scale, 0 no effect, 100 complete control, read-out: Barnyardgrass plant response rating) was 90%. It also gave a pest or weed control at 500 g/ha (redroot pigweed; post-emergence, Postemergence, 500 g ai/ha, 0 to 100 scale, 0 no effect, 100 complete control, read-out: Plant response rating, Pigweed) of 100%, a pest or weed control at 2000 g/ha (redroot pigweed; post-emergence, Postemergence, 2000 g ai/ha, 0 to 100 scale, 0 no effect, 100 complete control, read-out: Plant response rating, Pigweed) of 100% and a pest or weed control at 500 g/ha (redroot pigweed; pre-emergence, Preemergence, 500 g ai/ha, visual rating, 0 to 100 scale (0 no effect, 100 complete control), read-out: Pigweed plant response rating) of 100%. For the same molecule, the pest or weed control at 2000 g/ha (redroot pigweed; pre-emergence, Preemergence, 2000 g ai/ha, 0 to 100 scale, 0 no effect, 100 complete control, read-out: Pigweed plant response rating) was 100%, the pest or weed control at 62 g/ha (ducksalad; Heteranthera limosa, 62 g ai/ha, scale 0 to 100 (0 no effect, 100 complete control), read-out: Ducksalad plant response rating) was 0% and the pest or weed control at 125 g/ha (ducksalad; Heteranthera limosa, 125 g ai/ha, scale of 0 to 100, 0 is no effect, 100 is complete control, read-out: Ducksalad plant response rating) was 0%. The pest or weed control at 250 g/ha (ducksalad; Heteranthera limosa, 250 g ai/ha, visual rating after 12 to 14 days, scale 0 to 100 (0 no effect, 100 complete control), read-out: Plant response rating, Ducksalad) was 60%, the pest or weed control at 500 g/ha (ducksalad; Heteranthera limosa, 500 g ai/ha, visual rating after 12 to 14 days, scale 0 to 100 (0 no effect, 100 complete control), read-out: Plant response rating, Ducksalad) was 70% and the pest or weed control at 2000 g/ha (velvetleaf; Abutilon theophrasti, post-emergence, 240 h, Postemergence, 2000 g ai/ha, 0 to 100 scale, 0 no effect, 100 complete control, read-out: Plant response rating, Velvetleaf) was 30%. The pest or weed control at 500 g/ha (velvetleaf; Abutilon theophrasti, pre-emergence, 240 h, Preemergence, 500 g ai/ha, visual rating, 0 to 100 scale (0 no effect, 100 complete control), read-out: Velvetleaf plant response rating) was 5% and the pest or weed control at 2000 g/ha (velvetleaf; Abutilon theophrasti, pre-emergence, 240 h, Preemergence, 2000 g ai/ha, 0 to 100 scale, 0 no effect, 100 complete control, read-out: Velvetleaf plant response rating) was 60%.
`CCn1nc(C(C)(C)C)cc1C(=O)Nc1cccc(C(=O)NOC)c1` [Compound 67] was tested, and the “Barnyardgrass plant response rating” value (barnyardgrass [1]; [3]) was 0, the “Barnyardgrass plant response rating” value (barnyardgrass [1]; [4]) was 0 and the “Barnyardgrass plant response rating” value (barnyardgrass [1]; [5]) was 10. The “Plant response rating, Barnyardgrass” value (barnyardgrass [1]; [6]) was 25, the “Plant response rating, Foxtail, Giant” value (giant foxtail; [7]) was 10 and the “Plant response rating, Foxtail, Giant” value (giant foxtail; [8]) was 20. The “Foxtail, Giant plant response rating” value (giant foxtail; [9]) was 0, the “Foxtail, Giant plant response rating” value (giant foxtail; [10]) was 30 and the “Plant response rating, Barnyardgrass” value (barnyardgrass [2]; [7]) was 0. For the same molecule, the “Plant response rating, Barnyardgrass” value (barnyardgrass [2]; [8]) was 25, the “Barnyardgrass plant response rating” value (barnyardgrass [2]; [9]) was 0 and the “Barnyardgrass plant response rating” value (barnyardgrass [2]; [10]) was 30. For the same molecule, the “Plant response rating, Pigweed” value (redroot pigweed; [7]) was 50, the “Plant response rating, Pigweed” value (redroot pigweed; [8]) was 85 and the “Pigweed plant response rating” value (redroot pigweed; [9]) was 0. For the same molecule, the “Pigweed plant response rating” value (redroot pigweed; [10]) was 90, the “Ducksalad plant response rating” value (ducksalad; [3]) was 30 and the “Ducksalad plant response rating” value (ducksalad; [4]) was 30. The “Ducksalad plant response rating” value (ducksalad; [5]) was 40, the “Plant response rating, Ducksalad” value (ducksalad; [6]) was 40 and the “Plant response rating, Velvetleaf” value (velvetleaf; [8]) was 15. For the same molecule, the “Velvetleaf plant response rating” value (velvetleaf; [9]) was 30 and the “Velvetleaf plant response rating” value (velvetleaf; Preemergence, 2000 g ai/ha, visual rating, 0 to 100 scale (0 no effect, 100 complete control)) was 75.
